# Where “and” joins values, the source holds several entries; their conditions need not be identical. Equal entries are not always repeated.
# Experiments:
# spore population = test: NO2 gas exposure of powder under dry conditions (dry air diluent), spore inactivation; assay type: cell-based; details: 10 mg/l NO2 gas, exposure 60 to 600 minutes
# From the text: FIG. 10 is a log-linear scale of population against exposure time for an experiment carried out with a dry air diluent.
# [1] = system: spores in PVP/spore mixture powder; test: NO2 gas sterilization of tumbled PVP/spore mixture powder in humid air, CFU recovery; assay type: cell-based; details: for spore concentration after treatment: two vials present; for CFU per 100 mg: single plates
# Procedure: A test to determine whether 100 mg of (PVP) and spore mixture powder could be sterilized using an NO2 gas sterilization process that incorporates a powder tumbling system. The NO2 used was a 10% NO2/90% N2 mixture.
# A 2.2 cm diameter circular Tyvek® pieces was likewise cut and the Tyvek® piece was placed between the cap and the silicone septum ring forming a partially breathable cap on the vials, while maintaining the self-healing characteristic of the silicone septum.
# The colony forming units (CFU's) recovered from each spore mixture were counted. Multiple plates and dilutions from a given biological indicator (BI) were averaged.
# Vials were placed into a cylindrical mesh container. The container was in turn placed into a rock polisher that was configured to spin the container and the vials therein.
# The second vial contained 100 mg of PVP/spore mixture with 10 3 mm glass beads (weight of the beads excluded). […]
# After the runs, the samples were processed and CFUs were counted after approximately 48 hours of incubation at 35° C.-39° C.
# [2] = Run 2 NX1080423A, 3.0 mm, 5 beads, 0.4% NO2, humid air to 25.13 in Hg, 40 min dwell
# [3] = Run 2 NX1080423A, 3.0 mm, 10 beads, 0.4% NO2, humid air to 25.13 in Hg, 40 min dwell
# [4] = Run 4 NX1080424B, 3.0 mm beads, Table 4 cycle, humid air per Table 5
# [5] = Run 5 NX1080429A, 3.0 mm beads, Table 4 cycle, humid air per Table 5
# [6] = Run 6 NX1080429B, 3.0 mm beads, Table 4 cycle, humid air per Table 5
# [7] = Run 7 NX1080429C, 3.0 mm beads, Table 4 cycle, humid air per Table 5
smiles,measurement,setting,value
"[O]N=O [NO2, nitrogen dioxide]",lethality,spore population,acceptable lethality
same,final spore concentration,"[1]; 0.5 mm bead samples, three pulses, 21 in Hg of humidity added",4.0×10^−1 spores/100 mg
same,spore concentration after treatment,"[1]; 0.5 mm bead samples, 17 in Hg of humidity added",1.3×10^2 spores/100 mg
same,spore concentration after treatment,"[1]; 0.5 mm bead samples, 21 in Hg of humidity added",1.8×10^3 spores/100 mg
same,spore concentration after treatment,"[1]; 0.5 mm bead samples, 23 in Hg of humidity added",3.5×10^2 spores/100 mg
same,Average per 100 mg,"[1]; Run 1 NX1080422A, 0.5 mm beads, first vial, 0.4% NO2, humid air to 25.13 in Hg, 40 min dwell",2.4 × 10^4 per 100 mg
same,Average per 100 mg,"[1]; Run 1 NX1080422A, 0.5 mm beads, second vial, 0.4% NO2, humid air to 25.13 in Hg, 40 min dwell",6.2 × 10^4 per 100 mg
same,Average per 100 mg,[1]; [2],>2.0 × 10^5 per 100 mg
same,CFU per 100 mg,[1]; [2],>2.0 × 10^5 CFU per 100 mg
same,Average per 100 mg,[1]; [3],>2.0 × 10^5 per 100 mg
same,CFU per 100 mg,[1]; [3],>2.0 × 10^5 CFU per 100 mg
same,Average per 100 mg,"[1]; Run 3 NX1080424A, 0.5 mm beads, pre-humidity 10 min, 0.2%+0.2% NO2 with humid air, 10 min dwell, cycle repeats 2",3.4 × 10^3 per 100 mg
same,Average per 100 mg,"[1]; Run 3 NX1080424A, 3.0 mm beads, pre-humidity 10 min, 0.2%+0.2% NO2 with humid air, 10 min dwell, cycle repeats 2",8.6 × 10^4 per 100 mg
same,Average per 100 mg,"[1]; Run 4 NX1080424B, 0.5 mm beads, Table 4 cycle: pre-NO2 0.4% 10 min, 0.2%+0.2% NO2, humid air per Table 5, 10 min dwell",1.8 × 10^3 per 100 mg
same,Average per 100 mg,[1]; [4],4.0 × 10^4 per 100 mg
same,CFU per 100 mg,[1]; [4],4.0 × 10^4 CFU per 100 mg and 3.2 × 10^4 CFU per 100 mg and 5.4 × 10^4 CFU per 100 mg and 3.5 × 10^5 CFU per 100 mg
same,Average per 100 mg,"[1]; Run 5 NX1080429A, 0.5 mm beads, Table 4 cycle, humid air per Table 5",3.5 × 10^2 per 100 mg
same,Average per 100 mg,[1]; [5],3.6 × 10^4 per 100 mg
same,CFU per 100 mg,[1]; [5],3.5 × 10^4 CFU per 100 mg and 3.6 × 10^4 CFU per 100 mg
same,Average per 100 mg,"[1]; Run 6 NX1080429B, 0.5 mm beads, Table 4 cycle, humid air per Table 5",1.1 × 10^2 per 100 mg
same,Average per 100 mg,[1]; [6],1.9 × 10^4 per 100 mg
same,CFU per 100 mg,[1]; [6],1.6 × 10^4 CFU per 100 mg and 1.8 × 10^4 CFU per 100 mg and 2.7 × 10^4 CFU per 100 mg
same,Average per 100 mg,"[1]; Run 7 NX1080429C, 0.5 mm beads, Table 4 cycle, humid air per Table 5",1.3 × 10^2 per 100 mg
same,Average per 100 mg,[1]; [7],2.3 × 10^4 per 100 mg
same,CFU per 100 mg,[1]; [7],2.1 × 10^4 CFU per 100 mg and 2.0 × 10^4 CFU per 100 mg and 2.9 × 10^4 CFU per 100 mg and 2.3 × 10^4 CFU per 100 mg
same,Average per 100 mg,"[1]; Run 8 NX1080501B, 0.5 mm beads, one vial, Table 4 cycle, humid air and repeats per Table 5",1.8 × 10^2 per 100 mg
same,Average per 100 mg,"[1]; Run 9 NX1080501C, 0.5 mm beads, one vial, Table 4 cycle, humid air and repeats per Table 5",3.3 × 10^1 per 100 mg
same,Average per 100 mg,"[1]; Run 10 NX1080501D, 0.5 mm beads, one vial, Table 4 cycle, humid air and repeats per Table 5",5.0 × 10^0 per 100 mg
same,Average per 100 mg,"[1]; Run 11 NX1080501E, 0.5 mm beads, one vial, Table 4 cycle, humid air and repeats per Table 5",1.3 × 10^2 per 100 mg
same,Average per 100 mg,"[1]; Run 12 NX1080505A, 0.5 mm beads, one vial, Table 4 cycle, humid air and repeats per Table 5",2.2 × 10^1 per 100 mg
same,Average per 100 mg,"[1]; Run 13 NX1080505B, 0.5 mm beads, one vial, Table 4 cycle, humid air and repeats per Table 5",2.0 × 10^0 per 100 mg
same,Average per 100 mg,"[1]; Run 14 NX1080505C, 0.5 mm beads, one vial, Table 4 cycle, humid air and repeats per Table 5",4.0 × 10^−1 per 100 mg
same,Average per 100 mg,"[1]; Run 15 NX1080505D, 0.5 mm beads, one vial, Table 4 cycle, humid air and repeats per Table 5",8.0 × 10^0 per 100 mg
